Reference: patent publication US9751857B2, “Hepatitis B antiviral agents” (NOVIRA THERAPEUTICS, INC., priority 2011, dated 2017)

Key:
[1] = biological target: HBV C150Bo capsid protein (HBV CA protein) (Hepatitis B virus genotype D subtype adw, UniProt P03147, C107A/C48A/C61A/R150C); experiment: HBV assembly assay (fluorescence quenching in vitro assembly); type: biochemical; settings: at 10 μM
[2] = test system: HBV replication in HepG2-2.2.15 cells; experiment: Dot-blot assay of HBV replication; type: cell-based; settings: Hepatitis B virus, 144 h
Description: Compounds active in the HBV assembly assay are tested for their activity and toxicity in cellular assay. In the first anti-viral assay, the ability of compounds to inhibit HBV replication in an HBV-producing hepatoma cell line using the dot-blot method is evaluated.
Briefly, confluent monolayers of HepG2-2.2.15 cells are incubated with complete medium containing various concentrations of a test compound. Three days later, the culture medium is replaced with fresh medium containing the appropriately diluted test compound. Six days following the initial administration of the test compound, the cell culture supernatant is collected, and cell lysis is performed. The samples are applied onto Nylos membranes and DNA is immobilized to the membrane by UV cross-linking. After pre-hybridization, the HBV probe is added and the hybridization is performed overnight. The membranes are exposed to the Kodak films; antiviral activity is calculated from the reduction in HBV DNA levels (EC50). The EC50 for antiviral activity is calculated from the dose response curves of active compounds.
In the first anti-viral assay, the ability of compounds to inhibit HBV replication in an HBV-producing hepatoma cell line using the dot-blot method was evaluated.
Confluent monolayers of HepG2-2.2.15 cells were incubated with complete medium containing various concentrations of a test compound. Three days later, the culture medium was replaced with fresh medium containing the appropriately diluted test compound. Six days following the initial administration of the test compound, the cell culture supernatant was collected, and cell lysis was performed. The samples were applied onto Nylos membranes and DNA was immobilized to the membrane by UV cross-linking. After pre-hybridization, the HBV probe was added and the hybridization was performed overnight. The membranes were exposed to the Kodak films; antiviral activity was calculated from the reduction in HBV DNA levels (EC50). The EC50 for antiviral activity was calculated from the dose response curves of active compounds. […]

Sequence of HBV C150Bo capsid protein (HBV CA protein) (P03147 1-150 C48A/C61A/C107A/R150C): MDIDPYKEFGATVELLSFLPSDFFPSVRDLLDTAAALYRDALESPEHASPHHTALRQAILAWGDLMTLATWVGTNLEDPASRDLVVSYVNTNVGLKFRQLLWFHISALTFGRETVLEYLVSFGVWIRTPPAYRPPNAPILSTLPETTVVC

SMILES	Activity in HBV assembly assay [1]	inhibition at 10 µM [2]
O=C(Nc1cc(F)c(F)c(F)c1)c1ccc(F)c(S(=O)(=O)N2CCC(O)C(CF)C2)c1 (stereo not shown) [compound 1283]	+ (‘+’ indicates >50% activity at 10 μM)	> 50%
O=C(Nc1cc(F)c(F)c(CF)c1)c1cccc(S(=O)(=O)N2CC(O)C2)c1 [compound 803]	+ (‘+’ indicates >50% activity at 10 μM)	> 50%
O=C(Nc1ccc(F)c(Cl)c1)c1ccc(Cl)c(S(=O)(=O)NC2CC(O)C2)c1 (stereo not shown) [compound 1042]	+ (‘+’ indicates >50% activity at 10 μM)	> 50%
O=C(Nc1ccc(F)c(Cl)c1)c1ccc(F)c(S(=O)(=O)NC2CCC(O)C2)c1 (stereo not shown) [compound 958]	+ (‘+’ indicates >50% activity at 10 μM)	> 50%
O=C(Nc1ccc(F)c(Cl)c1)c1cccc(S(=O)(=O)N2CCCC2CO)c1 (stereo not shown) [compound 208]	+ (‘+’ indicates >50% activity at 10 μM)	> 50%
O=C(Nc1cc(F)c(F)c(Cl)c1)c1cccc(S(=O)(=O)N2CC(O)C2)c1 [compound 935]	+ (‘+’ indicates >50% activity at 10 μM)	> 50%
O=C(Nc1cc(F)c(F)c(F)c1)c1cc(S(=O)(=O)N2CC(O)C2)c(F)cc1Cl [compound 1339]	+ (‘+’ indicates >50% activity at 10 μM)	> 50%
O=C(Nc1cc(F)c(F)c(F)c1)c1ccc(Cl)c(S(=O)(=O)N2CCC(O)CC2)c1 [compound 1057]	+ (‘+’ indicates >50% activity at 10 μM)	> 50%
O=C(Nc1ccc(F)c(Br)c1)c1cccc(S(=O)(=O)N2CC(O)C(F)C2)c1 (stereo not shown) [compound 826]	+ (‘+’ indicates >50% activity at 10 μM)	> 50%
O=C(Nc1ccc(F)c(Cl)c1)c1cccc(S(=O)(=O)N2CCC(O)(c3cccc(F)c3F)CC2)c1 [compound 775]	+ (‘+’ indicates >50% activity at 10 μM)	> 50%
O=C(Nc1cc(F)c(F)c(F)c1)c1ccc(F)c(S(=O)(=O)N2CCC(O)(CO)CC2)c1 [compound 916]	+ (‘+’ indicates >50% activity at 10 μM)	> 50%
O=C(Nc1ccc(F)c(Cl)c1)c1ccc(F)c(S(=O)(=O)N2CC(O)C2)c1 [compound 953]	+ (‘+’ indicates >50% activity at 10 μM)	> 50%
N#Cc1cc(NC(=O)c2cccc(S(=O)(=O)N3CCC(O)CC3)c2)ccc1F [compound 419]	+ (‘+’ indicates >50% activity at 10 μM)	> 50%
O=C(Nc1ccc(F)c(Br)c1)c1cccc(S(=O)(=O)NC2CCCC(O)C2)c1 (stereo not shown) [867D2]	+ (‘+’ indicates >50% activity at 10 μM)	> 50%
O=C(Nc1ccc(F)c(Br)c1)c1ccc(F)c(S(=O)(=O)NC2CCC(O)C2)c1 (stereo not shown) [compound 959]	+ (‘+’ indicates >50% activity at 10 μM)	> 50%
CCCC(=O)N1CCN(S(=O)(=O)c2cccc(C(=O)Nc3cccc(Br)c3)c2)CC1 [compound 121]	+ (‘+’ indicates >50% activity at 10 μM)	> 50%
O=C(Nc1cc(F)c(F)c(C(F)F)c1)c1cccc(S(=O)(=O)N2CCC(O)C(F)C2)c1 (stereo not shown) [824D2]	+ (‘+’ indicates >50% activity at 10 μM)	> 50%
O=C(Nc1ccc(F)c(Cl)c1)c1cccc(S(=O)(=O)N2CCC(O)(c3ccccc3)CC2)c1 [compound 541]	+ (‘+’ indicates >50% activity at 10 μM)	> 50%
O=C(Nc1cc(F)c(F)c(F)c1)c1ccc(F)c(S(=O)(=O)N2CCC(O)C2)c1 (stereo not shown) [compound 903]	+ (‘+’ indicates >50% activity at 10 μM)	> 50%
O=C(Nc1cc(F)c(F)c(F)c1)c1cc(S(=O)(=O)NC2COCC2O)c(F)cc1Cl (stereo not shown) [compound 1404]	+ (‘+’ indicates >50% activity at 10 μM)	> 50%
CN(CCO)S(=O)(=O)c1cccc(C(=O)Nc2ccc(F)cc2)c1 [compound 332]	+ (‘+’ indicates >50% activity at 10 μM)	> 50%

SMILES	Activity in HBV assembly assay [1]	inhibition at 10 µM [2]
CC1CN(S(=O)(=O)c2cccc(C(=O)Nc3cc(F)c(F)c(F)c3)c2)CCC1O (stereo not shown) [610D2]	+ (‘+’ indicates >50% activity at 10 μM)	> 50%
CN(CCO)S(=O)(=O)c1cccc(C(=O)Nc2cccc(Br)c2)c1 [compound 079]	+ (‘+’ indicates >50% activity at 10 μM)	> 50%
O=C(Nc1cc(F)c(F)c(F)c1)c1cc(S(=O)(=O)NC2CC(O)C2)c(F)cc1Cl (stereo not shown) [1374CT1]	+ (‘+’ indicates >50% activity at 10 μM)	> 50%
O=C(Nc1ccc(F)c(Br)c1)c1cccc(S(=O)(=O)N2CCC(O)(CO)CC2)c1 [compound 758]	+ (‘+’ indicates >50% activity at 10 μM)	> 50%
O=C(Nc1ccc(F)c(Cl)c1)c1cc(S(=O)(=O)N2CCC(O)(CO)CC2)c(F)cc1Cl [compound 1380]	+ (‘+’ indicates >50% activity at 10 μM)	> 50%
O=C(Nc1cc(F)c(F)c(F)c1)c1cc(S(=O)(=O)NC2CCCCC2O)ccc1Cl (stereo not shown) [compound 1129]	+ (‘+’ indicates >50% activity at 10 μM)	> 50%
O=C(Nc1ccc(F)c(C(F)F)c1)c1cccc(S(=O)(=O)N2CCCC2CO)c1 (stereo not shown) [677R]	+ (‘+’ indicates >50% activity at 10 μM)	> 50%
O=C(Nc1ccc(F)c(Cl)c1)c1cc(S(=O)(=O)NC2CCCC2O)ccc1Cl (stereo not shown) [compound 1114]	+ (‘+’ indicates >50% activity at 10 μM)	> 50%
O=C(Nc1cc(F)c(F)c(F)c1)c1ccc(F)c(S(=O)(=O)N2CC(O)C2)c1 [compound 901]	+ (‘+’ indicates >50% activity at 10 μM)	> 50%
O=C(Nc1cc(F)c(F)c(F)c1)c1cccc(S(=O)(=O)N2CCC(O)(c3ccc(F)cc3)CC2)c1 [compound 765]	+ (‘+’ indicates >50% activity at 10 μM)	> 50%
O=C(Nc1ccc(F)c(Br)c1)c1ccc(Cl)c(S(=O)(=O)N2CCC(CCO)CC2)c1 [compound 1087]	+ (‘+’ indicates >50% activity at 10 μM)	> 50%
O=C(Nc1cc(F)c(F)c(F)c1)c1ccc(F)c(S(=O)(=O)N2CCC(O)C(F)C2)c1 (single isomer, unassigned) [960D1]	+ (‘+’ indicates >50% activity at 10 μM)	> 50%
O=C(Nc1ccc(F)c(Cl)c1)c1cccc(S(=O)(=O)N2CCC(O)C(CO)C2)c1 (stereo not shown) [719D1]	+ (‘+’ indicates >50% activity at 10 μM)	> 50%
O=C(Nc1cccc(Br)c1)c1cccc(S(=O)(=O)N2CCN(c3ccncc3)CC2)c1 [compound 126]	+ (‘+’ indicates >50% activity at 10 μM)	> 50%
COC1CN(S(=O)(=O)c2cccc(C(=O)Nc3cccc(Cl)c3)c2)C1 [compound 191]	+ (‘+’ indicates >50% activity at 10 μM)	> 50%
O=C(Nc1cc(F)c(F)c(Cl)c1)c1cccc(S(=O)(=O)N2CCC(O)CC2)c1 [compound 595]	+ (‘+’ indicates >50% activity at 10 μM)	> 50%
O=C(Nc1ccc(F)c(Cl)c1)c1cccc(S(=O)(=O)NC2CCC(O)C2)c1 (stereo not shown) [compound 1157]	+ (‘+’ indicates >50% activity at 10 μM)	> 50%
O=C(Nc1ccc(F)c(Cl)c1)c1cccc(S(=O)(=O)N2CCC(CO)(Cc3ccccc3)CC2)c1 [compound 553]	+ (‘+’ indicates >50% activity at 10 μM)	> 50%
O=C(Nc1cc(F)c(F)c(F)c1)c1ccc(F)c(S(=O)(=O)N2CCC(O)CC2)c1 [compound 890]	+ (‘+’ indicates >50% activity at 10 μM)	> 50%
O=C(Nc1ccc(F)c(Cl)c1)c1ccc(F)c(S(=O)(=O)N2CCC(CCO)CC2)c1 [compound 914]	+ (‘+’ indicates >50% activity at 10 μM)	> 50%
